Measurements taken from ChEMBL document CHEMBL1121909, “Alkylating angiotensin II analogues: synthesis, analysis, and biological activity of angiotensin II analogues containing the nitrogen mustard melphalan in position 8” (J Med Chem, 1981).
Where a SMILES comes first, the peptide text is derived from it. [ ]: non-standard residue; d: D form. Phe(4-N(CH2CH2Cl)2) = N[C@@H](Cc1ccc(N(CCCl)CCCl)cc1)C(=O)O

What was measured:
Rattus norvegicus [1] = species on record: Rattus norvegicus; experiment: Antagonism against angiotensin II induced contraction in Rat uterine preparation; type: functional; settings: read-out: pA2 (converted)
Rattus norvegicus [2] = experiment: The compound was tested in vivo for pressor activity in Rat uterine preparation; type: functional

CC[C@H](C)[C@H](NC(=O)[C@H](Cc1ccc(O)cc1)NC(=O)[C@@H](NC(=O)[C@H](CCCN=C(N)N)NC(=O)[C@H](CC(N)=O)NC(C)=O)C(C)C)C(=O)N[C@@H](Cc1c[nH]cn1)C(=O)N1CCC[C@H]1C(=O)N[C@@H](Cc1ccc(N(CCCl)CCCl)cc1)C(=O)O (Ac-NRVYIHP[Phe(4-N(CH2CH2Cl)2)]-OH)
Kb (Rattus norvegicus [1]): 3.16 nM

CC[C@H](C)[C@@H](NC(=O)[C@H](Cc1ccc(O)cc1)NC(=O)[C@@H](NC(=O)[C@H](CCCNC(N)N)NC(=O)[C@@H](N)CC(=O)O)C(C)C)[C@@H](C)N[C@@H](Cc1c[nH]cn1)C(=O)N1CCC[C@@H]1C(=O)N[C@@H](Cc1ccc(N(CCCl)CCCl)cc1)C(=O)O
Activity (Rattus norvegicus [2]): 0.3%
